Patent publication US8927767B2, “Crystalline polymorphs of acetyl-glycine-beta-alanine and process of making the same” (Corum Inc., priority 2013, dated 2015)

Tests used:
[1] = system: tissue model of the human epidermis prepared from cultured human keratinocytes and melanocytes; assay: Ex vivo whitening test in tissue model of the human epidermis; assay type: cell-based; conditions: 2% of acetyl-glycine-beta-alanine, 9 day
[2] = taught in U.S. patent application Ser. No. 13/128,446; cited from earlier work
melanin formation = conditions: taught in U.S. patent application Ser. No. 13/128,446; cited from earlier work
IL8 = assay: In vitro anti-inflammation study, IL8 level after UVB exposure; assay type: cell-based; conditions: human epidermal keratinocytes after exposure on UVB light
age spot = assay: In vivo human study, spot-brightening; conditions: after 14 days
IL-6 = assay: In vitro anti-inflammation study, IL-6 level after UVB exposure; assay type: cell-based; conditions: human epidermal keratinocytes after exposure on UVB light
[3] = Long term storage stability by powder X-ray diffraction; assay type: physicochemical; conditions: room temperature for 1 year without any humidity controlling
Protocol: (§1) The procedure of powder X-ray diffraction test used for obtaining FIG. 1, FIG. 2, FIG. 7 and FIG. 8 is described as follows:
(§2) The crystalline polymorphs of acetyl-glycine-beta-alanine was analyzed by an X-ray powder Diffractometer, Bruker D8 Advanced, equipped with a Cu anode (λ=1.540600 Angstrom). X-ray source operated at 40 kV, 40 mA. The measuring 2-theta range was from about 5 to 60 degree and step width was 0.05 degree.
Long term storage stability can be found in both crystalline polymorph A and crystalline polymorph B of acetyl-glycine-beta-alanine. The powder X-ray diffraction pattern of the crystalline polymorph A and crystalline polymorph B are shown as FIG. 1 and FIG. 2, wherein the crystalline polymorph A and crystalline polymorph B were stored at room temperature for 1 year without any humidity controlling.

[4] = Solubility study in different solvents (HPLC); assay type: physicochemical; conditions: for Solubility: room temperature, 30 min
Protocol: The Solubility Study of Crystalline Polymorph A and Polymorph B of Acetyl-Glycine-Beta-Alanine
According to the theory of thermodynamic of polymorphism, the most thermodynamic stable crystalline polymorph has lowest solubility. The solubility of both of the crystalline polymorph A and polymorph B of acetyl-glycine-beta-alanine were measured in different solvents.
The solubility measurement procedure was described as the following. Prepared a saturated acetyl-glycine-beta-alanine solution with 1 gram of test solvents and then stir it for 30 min at room temperature. Collected the solution through a filter and used HPLC to analyze its solubility. The solubility was represented by mg of the polymorphs/grams of the solvent.

[5] = Thermal stability study by powder X-ray diffraction; assay type: physicochemical; conditions: 140° C. oven with air circulation for 4 hours
Protocol: as §1, §2
Thermal Stability Study for Both of Crystalline Polymorph A and Crystalline Polymorph B of Acetyl-Glycine-Beta-Alanine:
The crystalline polymorph A of acetyl-glycine-beta-alanine and crystalline polymorph B of acetyl-glycine-beta-alanine were stored at 140° C. oven with air circulation for 4 hours, and then analyzed with powder X-ray diffraction.

[6] = Thermodynamic stable crystalline polymorph study: slurry equilibrium; assay type: physicochemical; conditions: 5 g polymorph A + 5 g polymorph B in isopropanol/water 100 g/10 g; 40 to 45° C. 8 hours, then 25 to 30° C. 48 hours
Protocol: Thermodynamic Stable Crystalline Polymorph Study: Slurry Equilibrium
Both of 5 grams of crystalline polymorph A and 5 grams of crystalline polymorph B of acetyl-glycine-beta-alanine were put into a flask. 100 grams of isopropanol and 10 grams of water were added into the flask to form a mixture. The mixture was stirred at 40 to 45° C. for 8 hours and then at 25 to 30° C. for 48 hours. The mixture was cooled to 15 to 20° C. and the crystalline was filtered out. The crystalline was dried and analyzed with powder X-ray diffraction and Fourier transform infrared spectrum.

[7] = Ethanol/water: 95/5 (weight ratio)
[8] = Isopropanol/water: 3/1 (weight ratio)

Row | long term storage stability (powder X-ray diffraction pattern) [3] | Solubility [4, 7] [mg/g] | Solubility [4, 8] [mg/g] | Solubility ([4]; Methanol) [mg/g] | Solubility ([4]; Water) [mg/g] | thermal stability (powder X-ray diffraction pattern) [5] | thermodynamic stability (from solubility results) ([4]; concluded from lower solubility in various solvents) | SMILES | existing melanin level (whitening efficacy) [1] [%] | color stability in the cosmetic formulation [2] | inhibiting melanin formation (melanin formation) | IL8 level (IL8) | age spot reduction (spot-brightening) (age spot) [%] | IL-6 level (IL-6) | crystalline form obtained after slurry equilibrium [6]
1 |  |  |  |  |  |  |  | CC(=O)NCC(=O)NCCC(=O)O [acetyl-glycine-beta-alanine] | −30 | good color stability | capable of inhibiting melanin formation | reduced | 51.67 | reduced | 
2 | not changed | 23.9 | 76.4 | 32.4 | 223.2 | changed |  | CC(=O)NCC(=O)NCCC(=O)O [crystalline polymorph B, acetyl-glycine-beta-alanine] |  |  |  |  |  |  | 
3 | not changed | 18.4 | 62.3 | 26.5 | 177.0 | still not changed | thermodynamically stable | CC(=O)NCC(=O)NCCC(=O)O [crystalline polymorph A, acetyl-glycine-beta-alanine] |  |  |  |  |  |  | the obtained crystalline was crystalline polymorph A
